Measurements: PMC10479830, “Nucleoside analogs NM107 and AT-527 are antiviral against rubella virus” (PNAS Nexus, 2023)
Where two headings read alike, the source gives them in different places.

Tests used:
[1] = system: HCV; design: method as in PMID 31914458; details: cited from earlier work
[2] = system: rubella virus; experiment: viral titers of Jeg-3 supernatants, TCID50 assay; format: cell-based; details: Jeg-3 cells, 10 μM, 48 hpi, below the limit of detection
Procedure: (§1) A549 or Jeg-3 cells were plated, treated, and infected as for the qRT–PCR experiments. At 4 hpi, cells were washed twice with DPBS (Invitrogen) to remove any nonadsorbed virus and 2 mL of appropriate culture medium treated with vehicle or drug was added. At 48 hpi, cell supernatants were collected and titered by TCID50 assay.
(§2) A549 cells were plated in 96 well plates at 25,000 cells/well and incubated overnight before inoculating with two-fold serial dilutions of viral stock or virus-containing supernatant to determine viral titer. At 24 hpi, plates were processed for microscopy and imaged as above. Titers were calculated using the Reed–Muench method ([26]).

[3] = system: rubella virus; experiment: qRT-PCR of viral RNA in infected A549 cells; format: cell-based; details: 10 µM, 48 h, vs vehicle
Procedure: (§3) We next performed orthogonal assays to determine the magnitude of the inhibition of rubella infection upon treatment with either NM107 or AT-527. […] We also determined if these nucleoside analogs impacted virus production.
(§4) A549 cells were plated in 6-well plates at 5 × 10^5 cells/well, HBMEC were plated at 6 × 10^5 cells/well, or Jeg-3 cells were plated at 5 × 10^5 cells/well. Twenty-four hours later, vehicle or drugs were added at the indicated concentrations. One hour later, cells were infected with rubella virus (MOI = 0.17 for A549s, MOI = 0.07 for HBMEC, MOI = 0.05 for Jeg-3 cells) and HBMEC were spin-infected by centrifuging at 1,250×g for 1 h at 25°C. […] At 48 hpi, total RNA was purified using Trizol (Invitrogen) followed by the RNA Clean and Concentrate kit (Zymo Research). cDNA synthesis was performed with random hexamers and Moloney murine leukemia virus reverse transcriptase (Invitrogen). Gene-specific primers to rubella RA27/3 NSP and GAPDH were used (Table S4). […] Relative quantities of viral and cellular RNA were calculated using a relative standard curve method where quantification was performed with respect to a 5-point standard curve generated from serial dilutions of a pooled reference generated by combining each sample cDNA for the experiment. […]

[4] = system: rubella virus; experiment: qRT-PCR of viral RNA in infected Jeg-3 cells; format: cell-based; details: 10 μM, 48 h, vs vehicle
Procedure: as §3, §4

[5] = system: rubella RA27/3 virus; experiment: microbe, parasite or virus in culture; format: cell-based; details: for selectivity index (SI = CC50/IC50): A549 cells; for IC50 / inhibition at 1 µM: Rubella virus; for inhibition at 1 µM: A549, read-out: inhibition of infection in primary screen
From the text: (§5) We developed a high-throughput, high-content, cell-based assay to monitor rubella virus infection of the human respiratory cell line A549, as the respiratory tract is infected in humans. […] We infected A549 cells with the rubella virus vaccine strain (RA27/3) and monitored infection using an antibody to the viral glycoprotein E1 (Fig. 1A) ([13]). […] To evaluate the utility of nanchangmycin as a positive control for our assay development, we performed a dose–response assay for nanchangmycin using automated fluorescent microscopy to quantify the cell number as a surrogate for cell viability and percent infection (Fig. 1A).
A549 cells were plated in 384 well plates at 3,000 cells/well, HBMEC were plated at 7,000 cells/well, or Jeg-3 cells were plated at 3,000 cells/well in 20 μL growth media. The next day, 50 nL of drugs were added to assay wells, yielding a final concentration of 1 µM. The positive control nanchangmycin (n = 32) and the negative control DMSO (n = 32) were spotted on each assay plate. […] HBMECs were spin-infected by centrifuging at 1,250×g for 1 h at 25°C. Cells were fixed at 48 h post infection (hpi) in 4% formaldehyde/phosphate-buffered saline (PBS) for 15 min at room temperature and then washed twice with PBS. Cells were blocked with blocking buffer [2% bovine serum albumin in PBS with 0.1% Triton X-100 (PBST)]) for 1 h and incubated with primary antibody (mouse antirubella E1, CDC, 1 μg/mL) overnight at 4°C. […] Cells were washed three times with PBST and imaged using ImageXpress Micro (Molecular Devices). Cells were imaged with a 10× objective capturing four sites per well. The total number of cells and the percentage of infected cells were measured using the MetaXpress 5.3.3 cell scoring module. The aggregated percent infection of the DMSO and 2 µM nanchangmycin control wells on each assay plate were used to calculate Z′-factors. Sample well infection was normalized to aggregated DMSO plate control wells and expressed as percentage of control (POC = [%Infection sample/Average %Infection DMSO] × 100) and Z-score (Z = [%Infection sample − Average %Infection DMSO]/Standard Deviation %Infection DMSO) in Spotfire (PerkinElmer). Candidate hits were selected as compounds with POC <40% and viability >60%, compared with vehicle control.
(§6) Drugs were purchased as powders from Selleckchem, MedchemExpress, and MedKoo and suspended in DMSO. Drugs were arrayed in 8-pt dose–response in 384 well plates. Infections were performed using the screening conditions. DMSO (n = 32) and 2 µM nanchangmycin (n = 16) were included on each validation plate as controls for normalization. Infection at each drug concentration was normalized to aggregated DMSO plate control wells and expressed as POC (POC = %Infection sample/Average %Infection DMSO cont). A nonlinear regression curve fit analysis (GraphPad Prism 8) was performed on POC infection and cell viability using log10 transformed concentration values to calculate IC50 values for infection and CC50 values for cell viability. SI was calculated as a ratio of the drug's CC50 and IC50 values (SI = CC50/IC50).

[6] = system: rubella virus; experiment: viral titers of A549 supernatants, TCID50 assay; format: cell-based; details: A549 cells, 10 µM, 48 hpi, at the limit of detection
Procedure: as §1, §2

[7] = system: rubella virus; experiment: rubella virus infection of Jeg-3 cells, dose-response; format: cell-based; details: for IC50: Rubella virus
Procedure: Since rubella can cause congenital infections, we next developed assays in the human trophoblast cell line Jeg-3.
(§7) A549 cells were plated in 384 well plates at 3,000 cells/well, HBMEC were plated at 7,000 cells/well, or Jeg-3 cells were plated at 3,000 cells/well in 20 μL growth media. The next day, 50 nL of drugs were added to assay wells, yielding a final concentration of 1 µM. The positive control nanchangmycin (n = 32) and the negative control DMSO (n = 32) were spotted on each assay plate. One hour later, cells were infected with rubella virus at a multiplicity of infection (MOI) = 0.234 for A549s, MOI = 0.1 for HBMEC, MOI = 0.05 for Jeg-3 cells). […] HBMECs were spin-infected by centrifuging at 1,250×g for 1 h at 25°C. Cells were fixed at 48 h post infection (hpi) in 4% formaldehyde/phosphate-buffered saline (PBS) for 15 min at room temperature and then washed twice with PBS. Cells were blocked with blocking buffer [2% bovine serum albumin in PBS with 0.1% Triton X-100 (PBST)]) for 1 h and incubated with primary antibody (mouse antirubella E1, CDC, 1 μg/mL) overnight at 4°C. Cells were washed three times with PBST and incubated in secondary (1:1000 antimouse Alexa Fluor 488 and 5 μg/mL Hoechst 33342) for 1 h at room temperature. Cells were washed three times with PBST and imaged using ImageXpress Micro (Molecular Devices). Cells were imaged with a 10× objective capturing four sites per well. The total number of cells and the percentage of infected cells were measured using the MetaXpress 5.3.3 cell scoring module. The aggregated percent infection of the DMSO and 2 µM nanchangmycin control wells on each assay plate were used to calculate Z′-factors. Sample well infection was normalized to aggregated DMSO plate control wells and expressed as percentage of control (POC = [%Infection sample/Average %Infection DMSO] × 100) and Z-score (Z = [%Infection sample − Average %Infection DMSO]/Standard Deviation %Infection DMSO) in Spotfire (PerkinElmer). Candidate hits were selected as compounds with POC <40% and viability >60%, compared with vehicle control.
as §6

[8] = cell number (cell viability) in A549 cells, Hoechst 33342, automated microscopy; format: cell-based, human; details: human
From the text: as §5, §7, §6

[9] = system: rubella virus; experiment: rubella virus infection of HBMEC, dose-response; format: cell-based; details: for activity against rubella in HBMEC: dose-response
Procedure: Rubella virus can infect diverse tissues in vivo, and viruses can show tissue-specific dependencies on host factors. […] First, we developed assays in human brain microvascular endothelial cells (HBMECs) as a model for endothelial cells. We again used nanchangmycin to optimize the assay (Fig. 3A and B).
as §7, §6

[10] = system: Jeg-3 cells; experiment: cell number (cell viability) in Jeg-3 cells; format: cell-based, human
Procedure: as §7, with “The aggregated percent infection of the DMSO and 2 µM nanchangmycin control wells on each assay plate were used to calculate Z′-factors.” left out, “Candidate hits were selected as compounds with POC <40% and viability >60%, compared with vehicle control.” left out
(§8) Drugs were purchased as powders from Selleckchem, MedchemExpress, and MedKoo and suspended in DMSO. […] Infection at each drug concentration was normalized to aggregated DMSO plate control wells and expressed as POC (POC = %Infection sample/Average %Infection DMSO cont). […] SI was calculated as a ratio of the drug's CC50 and IC50 values (SI = CC50/IC50).

[11] = cell number (cell viability) in HBMEC; format: cell-based; details: human, HBMEC (infected with rubella virus)
Procedure: A549 cells were plated in 384 well plates at 3,000 cells/well, HBMEC were plated at 7,000 cells/well, or Jeg-3 cells were plated at 3,000 cells/well in 20 μL growth media. The next day, 50 nL of drugs were added to assay wells, yielding a final concentration of 1 µM. The positive control nanchangmycin (n = 32) and the negative control DMSO (n = 32) were spotted on each assay plate. One hour later, cells were infected with rubella virus at a multiplicity of infection (MOI) = 0.234 for A549s, MOI = 0.1 for HBMEC, MOI = 0.05 for Jeg-3 cells). […] HBMECs were spin-infected by centrifuging at 1,250×g for 1 h at 25°C. […] The total number of cells and the percentage of infected cells were measured using the MetaXpress 5.3.3 cell scoring module. […] Sample well infection was normalized to aggregated DMSO plate control wells and expressed as percentage of control (POC = [%Infection sample/Average %Infection DMSO] × 100) and Z-score (Z = [%Infection sample − Average %Infection DMSO]/Standard Deviation %Infection DMSO) in Spotfire (PerkinElmer). […]
as §8

[12] = design: method as in PMID 16248033; details: cited from earlier work
[13] = cell number (cell viability) in Jeg-3 cells; format: cell-based, human; details: human, Jeg-3 cells (infected with rubella virus)
Procedure: as §7, with “The aggregated percent infection of the DMSO and 2 µM nanchangmycin control wells on each assay plate were used to calculate Z′-factors.” left out, “Candidate hits were selected as compounds with POC <40% and viability >60%, compared with vehicle control.” left out
as §8

[14] = system: HCV; design: method as in PMID 16248033; details: reason for discontinuation; cited from earlier work
[15] = system: rubella virus; design: method as in PMID 30680653, PMID 28974385; details: case study; cited from earlier work
[16] = system: rubella virus; design: method as in PMID 30680653, PMID 28974385; details: cited from earlier work

CNc1nc(N)nc2c1ncn2[C@@H]1O[C@H](CO[P@@](=O)(N[C@@H](C)C(=O)OC(C)C)Oc2ccccc2)[C@@H](O)[C@@]1(C)F [AT-527]
in vivo activity in a clinical trial ([1]; HCV infection): showed in vivo activity | tolerability in clinical trial [1]: well tolerated | reduction of viral titers [2]: ~10,000 fold | reduction in viral replication as measured by qRT-PCR [3]: > 100 fold | reduction in viral RNA by qRT-PCR [4]: > 100 fold | selectivity index (SI = CC50/IC50) [5]: > 9 | IC50 ([5]; A549, read-out: half-maximal inhibitory concentration (IC50), rubella virus infection): 2250 nM | reduction of viral titers [6]: ~100,000 fold | IC50 ([7]; JEG-3, read-out: IC50, rubella virus infection): 10 nM

O=C1NC(=O)C(c2cnc3ccccn23)=C1c1cn2c3c(cc(F)cc13)CN(C(=O)N1CCCCC1)CC2 [LY2090314]
viability at 48 h, 1 µM ([8]; A549 cells (infected with rubella virus RA27/3), A549 cells, 1 µM, compared with vehicle alone, read-out: cell viability in primary screen): > 60% | activity against rubella in HBMEC [9]: showed activity | selectivity index (SI = CC50/IC50) [5]: > 2000 | inhibition at 1 µM [5]: > 60% | toxicity in Jeg-3 cells ([10]; Jeg-3 cells): no toxicity | activity against rubella in Jeg-3 cells ([7]; Jeg-3 cells, dose-response): no activity

C[C@@]1(O)[C@H](O)[C@@H](CO)O[C@H]1n1ccc(N)nc1=O [NM107, 2′-C-methylcytidine]
reduction of viral titers [2]: ~10,000 fold | reduction in viral replication as measured by qRT-PCR [3]: > 100 fold | CC50 at 48 h ([8]; A549 cells (infected with rubella virus RA27/3), A549 cells, cell number, read-out: half-maximal cytotoxicity concentration (CC50)): > 20 µM | CC50 at 48 h [11]: > 20 µM | IC50 ([9]; Rubella virus): < 10 nM | reduction in viral RNA by qRT-PCR [4]: > 100 fold | bioavailability [12]: low bioavailability | selectivity index (SI = CC50/IC50) [5]: > 817 | IC50 ([5]; A549, read-out: IC50, rubella virus infection): 20 nM | CC50 at 48 h [13]: > 20 µM | reduction of viral titers [6]: ~100,000 fold | IC50 ([7]; Jeg-3 cells, read-out: IC50, rubella virus infection): 600 nM

CC(C)[C@H](N)C(=O)O[C@@H]1[C@@H](CO)O[C@@H](n2ccc(N)nc2=O)[C@]1(C)O [NM283]
toxicity in clinical trials [14]: gastrointestinal toxicity

COC1=C2C[C@@H](C)C[C@H](OC)[C@H](O)[C@@H](C)/C=C(\C)[C@H](OC(N)=O)[C@@H](OC)/C=C\C=C(/C)C(=O)NC(=CC1=O)C2=O [geldanamycin]
viability at 48 h, 1 µM [8]: > 60% | activity against rubella in HBMEC [9]: showed activity | selectivity index (SI = CC50/IC50) [5]: > 163 | inhibition at 1 µM [5]: > 60% | toxicity in Jeg-3 cells [10]: high toxicity

CC(=O)Oc1ccccc1C(=O)Nc1ncc([N+](=O)[O-])s1 [nitazoxanide]
rubella virus antigen in patient (skin lesions) [15]: reduced rubella antigen | antiviral activity in cultured cells infected with rubella virus [16]: showed antiviral activity
